In ChEMBL document CHEMBL4715696, “In vitro synergistic anticancer activity of the combination of T-type calcium channel blocker and chemotherapeutic agent in A549 cells” (Bioorg Med Chem Lett, 2016):

How the values were obtained:
[1] = tested on: A549; assay: Cytotoxicity against human A549 cells assessed as reduction in cell viability by MTT assay; assay type: functional, cell-based
[2] = target: Voltage-dependent T-type calcium channel subunit alpha-1G (Homo sapiens, UniProt O43497); assay: Inhibition of T type calcium channel Cav3.1 (unknown origin) expressed in HEK293T cells by patch clamp method relative to control; assay type: cell-based
[3] = tested on: A549; assay: Induction of cell cycle arrest in human A549 cells assessed as accumulation at sub G1 phase at 5 uM after 24 hrs by flow cytometric analysis (reference value: 7.8%); assay type: functional
[4] = tested on: A549; assay: Induction of cell cycle arrest in human A549 cells assessed as accumulation at G1 phase at 5 uM after 24 hrs by flow cytometric analysis (reference value: 53.1%); assay type: functional
[5] = tested on: A549; assay: Induction of cell cycle arrest in human A549 cells assessed as accumulation at S phase at 5 uM after 24 hrs by flow cytometric analysis (reference value: 17.6%); assay type: functional
[6] = tested on: A549; assay: Induction of cell cycle arrest in human A549 cells assessed as accumulation at G2/M phase at 5 uM after 24 hrs by flow cytometric analysis (reference value: 21.6%); assay type: functional
[7] = tested on: A549; assay: Induction of cell cycle arrest in human A549 cells assessed as accumulation at sub G1 phase at 5 uM after 48 hrs by flow cytometric analysis (reference value: 1.9 to 4.9%); assay type: functional
[8] = tested on: A549; assay: Induction of cell cycle arrest in human A549 cells assessed as accumulation at G1 phase at 5 uM after 48 hrs by flow cytometric analysis (reference value: 57.8 to 65.5%); assay type: functional
[9] = tested on: A549; assay: Induction of cell cycle arrest in human A549 cells assessed as accumulation at S phase at 5 uM after 48 hrs by flow cytometric analysis (reference value: 10.4 to 12%); assay type: functional
[10] = tested on: A549; assay: Induction of cell cycle arrest in human A549 cells assessed as accumulation at G2/M phase at 5 uM after 48 hrs by flow cytometric analysis (reference value: 22.1 to 25.4 %); assay type: functional
[11] = Metabolic stability in human plasma assessed as parent compound remaining at 10 uM measured after 2 hrs; assay type: ADME, cell-free; conditions: read-out: Stabilty
[12] = Metabolic stability in rat plasma assessed as parent compound remaining at 10 uM measured after 2 hrs; assay type: ADME, cell-free; conditions: read-out: Stabilty
[13] = tested on: A549; assay: Induction of cell cycle arrest in human A549 cells assessed as accumulation at sub G1 phase at 10 uM after 24 hrs by flow cytometric analysis (reference value: 7.8%); assay type: functional
[14] = tested on: A549; assay: Induction of cell cycle arrest in human A549 cells assessed as accumulation at G1 phase at 10 uM after 24 hrs by flow cytometric analysis (reference value: 53.1%); assay type: functional
[15] = tested on: A549; assay: Induction of cell cycle arrest in human A549 cells assessed as accumulation at S phase at 10 uM after 24 hrs by flow cytometric analysis (reference value: 17.6%); assay type: functional
[16] = tested on: A549; assay: Induction of cell cycle arrest in human A549 cells assessed as accumulation at G2/M phase at 10 uM after 24 hrs by flow cytometric analysis (reference value: 21.6%); assay type: functional
[17] = tested on: A549; assay: Induction of cell cycle arrest in human A549 cells assessed as accumulation at sub G1 phase at 10 uM after 48 hrs by flow cytometric analysis (reference value: 4.9%); assay type: functional
[18] = tested on: A549; assay: Induction of cell cycle arrest in human A549 cells assessed as accumulation at G1 phase at 10 uM after 48 hrs by flow cytometric analysis (reference value: 57.8%); assay type: functional
[19] = tested on: A549; assay: Induction of cell cycle arrest in human A549 cells assessed as accumulation at S phase at 10 uM after 48 hrs by flow cytometric analysis (reference value: 12%); assay type: functional
[20] = tested on: A549; assay: Induction of cell cycle arrest in human A549 cells assessed as accumulation at G2/M phase at 10 uM after 48 hrs by flow cytometric analysis (reference value: 25.4%); assay type: functional
[21] = Protein binding in human plasma at 10 uM after 4 hrs; assay type: ADME, cell-free; conditions: read-out: PPB (converted)
[22] = Protein binding in rat plasma at 10 uM after 4 hrs; assay type: ADME, cell-free; conditions: read-out: PPB (converted)

Chain of Voltage-dependent T-type calcium channel subunit alpha-1G (O43497 whole entry): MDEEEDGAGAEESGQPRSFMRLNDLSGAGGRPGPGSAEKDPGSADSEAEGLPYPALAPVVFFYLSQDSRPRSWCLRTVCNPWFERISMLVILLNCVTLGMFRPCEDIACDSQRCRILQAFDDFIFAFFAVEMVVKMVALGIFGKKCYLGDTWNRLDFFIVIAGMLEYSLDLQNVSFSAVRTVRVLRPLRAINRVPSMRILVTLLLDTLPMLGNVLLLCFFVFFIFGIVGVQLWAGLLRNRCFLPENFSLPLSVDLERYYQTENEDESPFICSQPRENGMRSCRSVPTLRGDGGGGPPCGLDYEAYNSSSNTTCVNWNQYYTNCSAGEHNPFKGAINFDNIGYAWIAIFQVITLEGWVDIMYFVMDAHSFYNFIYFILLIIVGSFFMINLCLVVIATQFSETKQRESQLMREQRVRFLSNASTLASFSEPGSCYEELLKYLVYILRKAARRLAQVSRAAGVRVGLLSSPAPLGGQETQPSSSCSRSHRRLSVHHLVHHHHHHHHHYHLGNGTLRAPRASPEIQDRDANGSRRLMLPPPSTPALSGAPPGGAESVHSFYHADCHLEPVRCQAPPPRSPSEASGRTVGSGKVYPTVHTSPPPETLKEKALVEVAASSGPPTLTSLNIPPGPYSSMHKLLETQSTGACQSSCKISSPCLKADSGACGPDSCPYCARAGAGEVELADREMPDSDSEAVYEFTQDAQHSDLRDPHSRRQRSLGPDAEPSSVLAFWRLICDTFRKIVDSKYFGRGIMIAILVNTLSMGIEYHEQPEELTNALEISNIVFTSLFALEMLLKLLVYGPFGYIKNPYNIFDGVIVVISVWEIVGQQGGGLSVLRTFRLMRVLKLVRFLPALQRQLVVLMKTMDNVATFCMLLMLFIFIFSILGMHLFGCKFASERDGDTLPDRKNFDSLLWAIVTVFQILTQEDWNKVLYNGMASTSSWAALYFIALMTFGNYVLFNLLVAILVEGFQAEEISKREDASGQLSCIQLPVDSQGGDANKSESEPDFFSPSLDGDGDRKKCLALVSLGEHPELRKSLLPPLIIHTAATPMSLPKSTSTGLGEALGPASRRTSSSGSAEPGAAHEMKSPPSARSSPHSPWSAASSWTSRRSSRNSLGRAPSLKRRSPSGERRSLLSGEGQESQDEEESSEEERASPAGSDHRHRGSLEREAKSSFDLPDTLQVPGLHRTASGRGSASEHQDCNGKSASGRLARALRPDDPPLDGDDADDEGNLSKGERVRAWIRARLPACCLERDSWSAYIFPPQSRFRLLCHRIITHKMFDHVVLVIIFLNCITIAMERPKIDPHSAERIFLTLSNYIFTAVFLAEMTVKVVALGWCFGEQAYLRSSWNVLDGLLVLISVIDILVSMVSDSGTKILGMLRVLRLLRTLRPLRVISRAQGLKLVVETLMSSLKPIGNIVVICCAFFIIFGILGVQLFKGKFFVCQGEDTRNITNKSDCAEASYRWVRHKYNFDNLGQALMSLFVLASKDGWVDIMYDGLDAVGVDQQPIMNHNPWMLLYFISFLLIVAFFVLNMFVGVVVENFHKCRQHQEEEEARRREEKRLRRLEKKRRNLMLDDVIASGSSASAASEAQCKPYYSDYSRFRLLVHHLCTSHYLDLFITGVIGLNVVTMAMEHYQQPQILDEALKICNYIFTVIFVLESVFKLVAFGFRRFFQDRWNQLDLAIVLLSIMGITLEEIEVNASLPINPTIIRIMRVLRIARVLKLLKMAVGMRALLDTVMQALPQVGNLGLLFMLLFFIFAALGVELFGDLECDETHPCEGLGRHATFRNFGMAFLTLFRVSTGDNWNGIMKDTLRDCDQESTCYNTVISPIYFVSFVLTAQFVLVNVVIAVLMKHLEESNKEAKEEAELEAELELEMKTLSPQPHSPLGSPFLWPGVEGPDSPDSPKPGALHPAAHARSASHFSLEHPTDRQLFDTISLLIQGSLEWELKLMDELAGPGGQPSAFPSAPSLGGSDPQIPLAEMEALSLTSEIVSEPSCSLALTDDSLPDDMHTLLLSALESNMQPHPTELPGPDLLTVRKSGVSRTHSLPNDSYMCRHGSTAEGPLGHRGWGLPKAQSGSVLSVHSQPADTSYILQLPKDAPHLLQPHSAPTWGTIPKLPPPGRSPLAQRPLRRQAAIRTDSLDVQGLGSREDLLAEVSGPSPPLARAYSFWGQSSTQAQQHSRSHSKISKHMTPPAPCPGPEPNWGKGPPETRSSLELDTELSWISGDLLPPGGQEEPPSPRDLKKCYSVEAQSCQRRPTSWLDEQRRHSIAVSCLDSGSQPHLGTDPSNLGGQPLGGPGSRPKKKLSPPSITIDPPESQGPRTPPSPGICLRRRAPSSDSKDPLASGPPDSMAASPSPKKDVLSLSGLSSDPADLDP

`CN(C)CCCCCN(C)C1=Nc2ccccc2C(CC(=O)NCc2ccccc2)N1c1ccc(-c2ccccc2)cc1.Cl.Cl` (stereo not drawn) gave an IC50 [1] of 4.7 µM, an IC50 [2] of 0.51 µM and an Activity [3] of 55.3%. For the same molecule, the Activity [4] was 33.6%, the Activity [5] was 8.8% and the Activity [6] was 2.2%. It also gave an Activity [7] of 98.1%, an Activity [8] of 1.2% and an Activity [9] of 0.6%. It also gave an Activity [10] of 0.1%.

With `CCN(CC)CCOC(=O)c1ccc(N)cc1` [PROCAINE] the remaining at 2 h, 10 µM [11] was under 5% and the remaining at 2 h, 10 µM [12] was over 50%.

With `COCC(=O)O[C@]1(CCN(C)CCCc2nc3ccccc3[nH]2)CCc2cc(F)ccc2[C@@H]1C(C)C` [MIBEFRADIL] the IC50 [1] was 31.4 µM, the Activity [13] was 9.6% and the Activity [14] was 66.1%. It also gave an Activity [15] of 10.9%, an Activity [16] of 13.4% and an Activity [17] of 10%. For the same molecule, the Activity [18] was 66.8%, the Activity [19] was 12% and the Activity [20] was 11.2%.

`CC(=O)CC(c1ccccc1)c1c(O)c2ccccc2oc1=O` (stereo not drawn) [WARFARIN] showed a fraction unbound at 4 h, 10 µM [21] of 0.022 and a fraction unbound at 4 h, 10 µM [22] of 0.017.
